{"source": "paper PMC4965013", "about": "“Open Source Drug Discovery with the Malaria Box Compound Collection for Neglected Diseases and Beyond” (PLoS Pathogens, 2016)", "key": {"P. falciparum": {"tested_on": "P. falciparum", "assay": "EC50 listed in S2 Table Metabolomics (used to set the concentration tested)", "type": "cell-based", "settings": "Plasmodium falciparum; EC50 used for Factor_XEC50 in metabolomics; read-out: EC50_nM"}, "[1]": {"tested_on": "P. falciparum 3D7 trophozoites", "assay": "Metabolomic fingerprint profiling LC-MS", "type": "cell-based, Plasmodium falciparum", "design": "UDP-D-glucose / ADP-D-glucose: unit not given here"}, "P. falciparum Dd2": {"tested_on": "P. falciparum Dd2", "assay": "Malaria Sybr Green I Fluorescence assay Dd2 Horrocks", "type": "cell-based", "settings": "Plasmodium falciparum, DD2, 48 h; read-out: P. falciparum Dd2 asexual blood stage EC50 Horrocks", "experimental": "Column S: Horrocks group (data presented first in this paper). Asexual Dd2 inhibition of growth (IC50s): IC50 for the Dd2 clone of Plasmodium falciparum were determined using the Malaria Sybr Green I Fluorescence assay. Drug assays were initiated using a 2% trophozoite stage parasitaemia and 2% hematocrit and fluorescence measured after 48 h as fully described in Hasenkamp et al.[53]. Log dose-response curves were plotted in GraphPad Prism (v5.0). The controls for Dd2 using our 48hr Sybr Green I assay were (rounded to nearest nM): Chloroquine 209nM, Mefloquine 11nM, Quinine 246nM, Dihydroartemisinin 4nM, Artemether 10nM, Atovaquone 3nM."}, "[2]": {"tested_on": "Naegleria fowleri trophozoites", "assay": "Naegleria fowleri CellTiter-Glo", "type": "cell-based", "excerpt": "Columns CY-CZ: Kyle group (data presented first in this paper). Naegleria fowleri trophozoite growth inhibition. Methods: The CellTiter-Glo (CTG) 2.0 luminescent assay is a quantitative assay that assesses the presence of cellular ATP in lysed cells, displaying an output in Relative Light Units (RLU’s). This was previously standardised, for the growth and development of Naegleria fowleri trophozoites in-vitro to assess drug susceptibility on this parasite. […] These included two drug-like molecules MMV665807 (St. Jude’s Children’s Hospital) and MMV665979 (The Genomics Institute of the Novartis Research Foundation - GNF) and two Probe-like molecules, MMV006203 (GNF) & MMV006172 (GNF; GlaxoSmithKline - GSK). […] However, these Malaria Box compounds were all toxic to zebrafish and mammalian cells."}, "[3]": {"settings": "metabolite level change after treatment"}}}
{"compound": "O=C1C(O)=C([C@H]2CC[C@H](c3ccc(Cl)cc3)CC2)C(=O)c2ccccc21", "note": "[Atovaquone, reference compound]", "values": [{"measurement": "EC50", "setting": "P. falciparum", "result": 1, "unit": "nM"}, {"measurement": "Acetyllysine", "setting": "[1]; S2 Table Metabolomics, metabolite Acetyllysine", "result": -0.04735}, {"measurement": "N-acetyl-L-ornithine", "setting": "[1]; S2 Table Metabolomics, metabolite N-acetyl-L-ornithine", "result": -0.04174}, {"measurement": "N-carbamoyl-L-aspartate", "setting": "[1]; S2 Table Metabolomics, metabolite N-carbamoyl-L-aspartate", "result": 3.574}, {"measurement": "NADPH", "setting": "[1]; S2 Table Metabolomics, metabolite NADPH", "result": 0.3866}, {"measurement": "dAMP", "setting": "[1]; S2 Table Metabolomics, metabolite dAMP", "result": -0.09487}, {"measurement": "dCMP", "setting": "[1]; S2 Table Metabolomics, metabolite dCMP", "result": 0.3344}, {"measurement": "dTDP", "setting": "[1]; S2 Table Metabolomics, metabolite dTDP", "result": -0.7104}, {"measurement": "dTMP", "setting": "[1]; S2 Table Metabolomics, metabolite dTMP", "result": -0.4179}, {"measurement": "dTTP", "setting": "[1]; S2 Table Metabolomics, metabolite dTTP", "result": -0.8198}, {"measurement": "dihydroorotate", "setting": "[1]; S2 Table Metabolomics, metabolite dihydroorotate", "result": 4.214}, {"measurement": "orotate", "setting": "[1]; S2 Table Metabolomics, metabolite orotate", "result": -0.07211}, {"measurement": "DLH", "setting": "[1]; S2 Table Metabolomics, peptide DLH", "result": -0.06109}, {"measurement": "DLS/SDL/SID", "setting": "[1]; S2 Table Metabolomics, peptide DLS/SDL/SID", "result": -0.04893}, {"measurement": "PD", "setting": "[1]; S2 Table Metabolomics, peptide PD", "result": 0.1235}, {"measurement": "PEE", "setting": "[1]; S2 Table Metabolomics, peptide PEE", "result": -0.1722}, {"measurement": "PVNF", "setting": "[1]; S2 Table Metabolomics, peptide PVNF", "result": -0.41}, {"measurement": "3-phosphoglycerate", "setting": "[1]; metabolite 3-phosphoglycerate, S2 Table Metabolomics", "result": 0.03739}, {"measurement": "ADP-D-glucose", "setting": "[1]; metabolite ADP-D-glucose, S2 Table Metabolomics", "result": 0.08423}, {"measurement": "ATP", "setting": "[1]; metabolite ATP, S2 Table Metabolomics", "result": 0.06271}, {"measurement": "CDP", "setting": "[1]; metabolite CDP, S2 Table Metabolomics, change in metabolite level after compound treatment", "result": -0.5138}, {"measurement": "D-sedoheptulose-1/7-phosphate", "setting": "[1]; metabolite D-sedoheptulose-1/7-phosphate, S2 Table Metabolomics, change in metabolite level after compound treatment", "result": 0.1418}, {"measurement": "FAD", "setting": "[1]; metabolite FAD, S2 Table Metabolomics", "result": 0.1027}, {"measurement": "GMP", "setting": "[1]; metabolite GMP, S2 Table Metabolomics, change in metabolite level after compound treatment", "result": 0.1184}, {"measurement": "NAD+", "setting": "[1]; metabolite NAD+, S2 Table Metabolomics", "result": 0.1854}, {"measurement": "NADP+", "setting": "[1]; metabolite NADP+, S2 Table Metabolomics", "result": 0.1184}, {"measurement": "Octoluse Bisphosphate", "setting": "[1]; metabolite Octoluse Bisphosphate, S2 Table Metabolomics, change in metabolite level after compound treatment", "result": -0.059}, {"measurement": "Pyroglutamic acid", "setting": "[1]; metabolite Pyroglutamic acid, S2 Table Metabolomics", "result": 0.08924}, {"measurement": "UDP-D-glucose", "setting": "[1]; metabolite UDP-D-glucose, S2 Table Metabolomics", "result": 0.001015}, {"measurement": "UDP-D-glucuronate", "setting": "[1]; metabolite UDP-D-glucuronate, S2 Table Metabolomics", "result": -0.0616}, {"measurement": "UDP-N-acetyl-glucosamine", "setting": "[1]; metabolite UDP-N-acetyl-glucosamine, S2 Table Metabolomics", "result": -0.1593}, {"measurement": "UDP", "setting": "[1]; metabolite UDP, S2 Table Metabolomics, change in metabolite level after compound treatment", "result": -0.7439}, {"measurement": "UMP", "setting": "[1]; metabolite UMP, S2 Table Metabolomics, change in metabolite level after compound treatment", "result": -0.8555}, {"measurement": "UTP", "setting": "[1]; metabolite UTP, S2 Table Metabolomics, change in metabolite level after compound treatment", "result": -1.1527}, {"measurement": "a-ketoglutarate", "setting": "[1]; metabolite a-ketoglutarate, S2 Table Metabolomics", "result": -0.0182}, {"measurement": "citrate/isocitrate", "setting": "[1]; metabolite citrate/isocitrate, S2 Table Metabolomics, change in metabolite level after compound treatment", "result": -0.0966}, {"measurement": "cytidine", "setting": "[1]; metabolite cytidine, S2 Table Metabolomics", "result": 0.2964}, {"measurement": "dATP", "setting": "[1]; metabolite dATP, S2 Table Metabolomics", "result": 0.2506}, {"measurement": "dGMP/AMP", "setting": "[1]; metabolite dGMP/AMP, S2 Table Metabolomics, change in metabolite level after compound treatment", "result": -0.116}, {"measurement": "fumarate", "setting": "[1]; metabolite fumarate, S2 Table Metabolomics, change in metabolite level after compound treatment", "result": 0.379}, {"measurement": "glucose-1/6-phosphate", "setting": "[1]; metabolite glucose-1/6-phosphate, S2 Table Metabolomics, change in metabolite level after compound treatment", "result": 0.3695}, {"measurement": "glycerate", "setting": "[1]; metabolite glycerate, S2 Table Metabolomics, change in metabolite level after compound treatment", "result": 0.1345}, {"measurement": "guanine", "setting": "[1]; metabolite guanine, S2 Table Metabolomics, change in metabolite level after compound treatment", "result": 0.3762}, {"measurement": "guanosine", "setting": "[1]; metabolite guanosine, S2 Table Metabolomics, change in metabolite level after compound treatment", "result": 0.6121}, {"measurement": "hypoxanthine", "setting": "[1]; metabolite hypoxanthine, S2 Table Metabolomics", "result": 0.2162}, {"measurement": "indole", "setting": "[1]; metabolite indole, S2 Table Metabolomics", "result": 0.1728}, {"measurement": "inosine", "setting": "[1]; metabolite inosine, S2 Table Metabolomics, change in metabolite level after compound treatment", "result": 0.1672}, {"measurement": "2_3-Diphosphoglyceric acid", "setting": "[1]; [3]", "result": -0.09802}, {"measurement": "4-phosphopantothenate", "setting": "[1]; [3]", "result": -0.2334}, {"measurement": "6-phospho-D-gluconate", "setting": "[1]; [3]", "result": 0.01237}, {"measurement": "FMN", "setting": "[1]; [3]", "result": -0.003621}, {"measurement": "IMP", "setting": "[1]; [3]", "result": 0.3101}, {"measurement": "Pyrophosphate", "setting": "[1]; [3]", "result": -0.1571}, {"measurement": "Sedoheptoluse bisphosphate", "setting": "[1]; [3]", "result": 0.01404}, {"measurement": "cyclic-AMP", "setting": "[1]; [3]", "result": -0.03093}, {"measurement": "glutathione disulfide", "setting": "[1]; [3]", "result": 0.00323}, {"measurement": "lactate", "setting": "[1]; [3]", "result": 0.02673}, {"measurement": "myo-inositol", "setting": "[1]; [3]", "result": 0.3272}, {"measurement": "nicotinate", "setting": "[1]; metabolite nicotinate, S2 Table Metabolomics", "result": 0.1461}, {"measurement": "ornithine", "setting": "[1]; metabolite ornithine, S2 Table Metabolomics", "result": 0.1076}, {"measurement": "phosphoenolpyruvate", "setting": "[1]; metabolite phosphoenolpyruvate, S2 Table Metabolomics", "result": 0.02037}, {"measurement": "pyruvate", "setting": "[1]; metabolite pyruvate, S2 Table Metabolomics, change in metabolite level after compound treatment", "result": -0.07747}, {"measurement": "ribose-phosphate", "setting": "[1]; metabolite ribose-phosphate, S2 Table Metabolomics", "result": 0.1578}, {"measurement": "sarcosine/alanine", "setting": "[1]; metabolite sarcosine/alanine, S2 Table Metabolomics, change in metabolite level after compound treatment", "result": -0.1241}, {"measurement": "sn-glycerol-3-phosphate", "setting": "[1]; metabolite sn-glycerol-3-phosphate, S2 Table Metabolomics", "result": 0.1524}, {"measurement": "succinate/methylmalonic acid", "setting": "[1]; metabolite succinate/methylmalonic acid, S2 Table Metabolomics, change in metabolite level after compound treatment", "result": -0.1814}, {"measurement": "uridine", "setting": "[1]; metabolite uridine, S2 Table Metabolomics, change in metabolite level after compound treatment", "result": -0.1824}, {"measurement": "xanthosine", "setting": "[1]; metabolite xanthosine, S2 Table Metabolomics, change in metabolite level after compound treatment", "result": 0.05904}, {"measurement": "EC50", "setting": "P. falciparum Dd2", "result": 3, "unit": "nM"}]}
{"compound": "FC(F)(F)c1cccc(CNC2CCN(CCc3ccccc3)CC2)c1", "note": "[MMV665979]", "values": [{"measurement": "Naegleria fowleri hit in words", "setting": "[2]", "result": "outstanding hit"}, {"measurement": "EC50", "setting": "[2]; Naegleria fowleri", "result": 190, "unit": "nM"}]}
